Laboratory results published in patent US20250171434A1, “SEC61 INHIBITORS AND USE THEREOF” (KEZAR LIFE SCIENCES, INC., priority 2022, published 2025).
Read-outs that look alike come from different tables or passages of the source.

Tests used:
[1] = tested on: PD1-ss+10aa/Gaussia Luciferase; assay: Dox-Induced PD1-ss-Gluc Assay; type: cell-based
Excerpt: Flp-In 293 T-REx™ cells were transfected with pcDNA™5/FRT/TO plasmid inserted with cDNA encoding Gaussia Luciferase fused to the 3′ end of cDNA encoding PD1 signal sequence plus 10 amino acids (N-[…]-C) (SEQ ID NO: 1). Transfected cells were selected for resistance to the selectable markers Hygromycin and Blasticidin to create a stable cell line that contained the PD1-ss+10aa/Gaussia Luciferase cDNA insert whose expression was regulated under the T-REx™ system. The day before assay, cells were trypsinized and plated in 384-well tissue culture plates. The next day, compound dilutions in DMSO/media containing doxycycline were added to the wells and incubated at 37° C., 5% CO2.
(§1) For chemical structures that include one or more stereoisomers, but are illustrated without indicating stereochemistry, the assay data refers to a mixture of stereoisomers.

[2] = tested on: CD47(ss + 10)Gluc; assay: Dox-Induced CD47-ss-Gluc Assay; type: cell-based
[3] = tested on: IL-2-FL/Gaussia Luciferase; assay: Dox Inducible IL2-FL-Gluc Assay; type: cell-based
Excerpt: Flp-In 293 T-REx™ cells were transfected with pcDNA™5/FRT/TO plasmid inserted with cDNA encoding Gaussia Luciferase fused to the 3′ end of cDNA encoding full length IL-2 (amino acids 1-153). Transfected cells were selected for resistance to the selectable markers Hygromycin and Blasticidin to create a stable cell line that contained the IL-2-FL/Gaussia Luciferase cDNA insert whose expression was regulated under the T-REx™ system. The day before assay, cells were trypsinized and plated in 384-well tissue culture plates. The next day, compound dilutions in DMSO/media containing doxycycline were added to the wells and incubated at 37° C., 5% CO2.
as §1

[4] = tested on: IL6R-ss+10aa/Gaussia Luciferase; assay: Dox-induced IL-6R-ss-Gluc Assay; type: cell-based
Excerpt: Flp-In 293 T-REx™ cells were transfected with pcDNATM5/FRT/TO plasmid inserted with cDNA encoding Gaussia Luciferase fused to the 3′ end of cDNA encoding IL6R signal sequence plus 10 amino acids (N-[…]-C). Transfected cells were selected for resistance to the selectable markers Hygromycin and Blasticidin to create a stable cell line that contained the IL6R-ss+10aa/Gaussia Luciferase cDNA insert whose expression was regulated under the T-REx™ system. The day before assay, cells were trypsinized and plated in 384-well tissue culture plates. The next day, compound dilutions in DMSO/media containing doxycycline were added to the wells and incubated at 37° C., 5% CO2.
as §1

[5] = Liver Microsome Stability Assay, human; type: in vitro ADME; settings: human liver microsomes 1.0 mg/mL, 1.0 uM compound, 37° C., 1 mM NADPH
Procedure: (§2) Stability of a compound was assessed in the presence of liver microsomes from various sources—mouse, rat, monkey and human liver microsomes. 1.0 uM compound, 0.4% DMSO in 0.1 M Potassium Phosphate with 1.0 mg/mL liver microsomes, were incubated at 37° C. with or without 1 mM NADPH. The samples were quenched at 0, and 30 minutes.

[6] = tested on: multiple myeloma cell line NCI-H929; assay: H929 Cell Viability Assay; type: cell-based, human; settings: for EC50: Homo sapiens
Procedure: The human multiple myeloma cell line NCI-H929 was cultured in Advanced RPMI 1640 media (Gibco®) supplemented with 6% fetal bovine serum, 2 mM Glutamine, and 1× Penicillin/Streptomycin. On the day of assay, cells were resuspended in RPMI 1640 media supplemented with 10% fetal bovine serum, 2 mM Glutamine, and 1× Penicillin/Streptomycin and plated in 384-well tissue culture plates and treated with compound dilutions in DMSO/media. Plates were incubated at 37° C., 5% CO2 for 48 hours. After 48 hours, Celltiter-Glo® (Promega) was added to each well and luciferase signal was quantified using Tecan Infinite M1000 Pro for cell viability determination.
as §1

[7] = Liver Microsome Stability Assay, rat; type: in vitro ADME; settings: rat liver microsomes 1.0 mg/mL, 1.0 uM compound, 37° C., 1 mM NADPH
Procedure: as §2

[8] = Liver Microsome Stability Assay, monkey; type: in vitro ADME; settings: monkey liver microsomes 1.0 mg/mL, 1.0 uM compound, 37° C., 1 mM NADPH
Procedure: as §2

[9] = tested on: multiple myeloma cell line U266B1; assay: U266 Cell Viability Assay; type: cell-based; settings: Homo sapiens
Procedure: The human multiple myeloma cell line U266B1 was cultured in RPMI 1640 media supplemented with 10% fetal bovine serum, 2 mM Glutamine, and 1× Penicillin/Streptomycin. Cells were plated in 384-well tissue culture plates and treated with compound dilutions in DMSO/media. Plates were incubated at 37° C., 5% CO2 for 48 hours. After 48 hours, Celltiter-Glo® (Promega) was added to each well and luciferase signal was quantified using Tecan Infinite M1000 Pro for cell viability determination.
as §1

[10] = Liver Microsome Stability Assay, mouse; type: in vitro ADME; settings: mouse liver microsomes 1.0 mg/mL, 1.0 uM compound, 37° C., 1 mM NADPH
Procedure: as §2

[11] = Flp-In 293 T-REx cells, 24 hours with doxycycline; Table 1; read-out: 24 hr Dox Inducible PD1ssGluc 293FRT/TO: Mean IC50
[12] = Flp-In 293 T-REx cells, 24 hours with doxycycline; Table 1; read-out: 24 hr Dox Inducible CD47(ss + 10)Gluc 293FRT/TO: Mean IC50
[13] = Flp-In 293 T-REx cells, 24 hours with doxycycline; Table 1; read-out: 24 hr Dox Inducible IL2FLGluc 293FRT/TO: Mean IC50
[14] = ratio of IC50s IL2/PD1; Table 1
[15] = Flp-In 293 T-REx cells, 24 hours with doxycycline; Table 1; read-out: 24hr Dox Inducible IL6R(ss + 10)Gluc 293FRT/TO: Mean IC50
[16] = ratio of IC50s IL6R/PD1; Table 1
[17] = NCI-H929 cells, 48 hours, Celltiter-Glo, read-out: 48 hr H929 Viability Celltiter-Glo: Mean EC50
[18] = U-266, U266B1 cells, 48 hours, Celltiter-Glo, read-out: 48 hr U266 Viability Celltiter-Glo: Mean EC50
[19] = read-out: 24 hr Dox Inducible PD1ssGluc 293FRT/TO: Mean IC50; Flp-In 293 T-REx cells, 24 hours with doxycycline; Table 1
[20] = read-out: 24 hr Dox Inducible CD47(ss + 10)Gluc 293FRT/TO: Mean IC50; Flp-In 293 T-REx cells, 24 hours with doxycycline; Table 1
[21] = read-out: 24 hr Dox Inducible IL2FLGluc 293FRT/TO: Mean IC50; Flp-In 293 T-REx cells, 24 hours with doxycycline; Table 1
[22] = read-out: 24hr Dox Inducible IL6R(ss + 10)Gluc 293FRT/TO: Mean IC50; Flp-In 293 T-REx cells, 24 hours with doxycycline; Table 1
[23] = NCI-H929, 48 h, read-out: 48 hr H929 Viability Celltiter-Glo: Mean EC50 (nM)
[24] = U-266, 48 h, read-out: 48 hr U266 Viability Celltiter-Glo: Mean EC50 (nM)

| Structure (SMILES) | IC50 [1, 11] [µM] | IC50 [2, 12] [µM] | IC50 [3, 13] [µM] | 24 hr Dox Inducible IL2FLGluc 293FRT/TO: IL2/PD1 [3, 14] | IC50 [4, 15] [µM] | 24hr Dox Inducible IL6R(ss + 10)Gluc 293FRT/TO: IL6R/PD1 [4, 16] | Liver Microsome Stability (Multiple Species): Human - % Remaining after 30 min w/ NADPH (%) [5] [%] | EC50 [6, 17] [nM] | Liver Microsome Stability (Multiple Species): Rat - % Remaining after 30 min w/ NADPH (%) [7] [%] | Liver Microsome Stability (Multiple Species): Monkey - % Remaining after 30 min w/ NADPH (%) [8] [%] | EC50 [9, 18] [nM] | Liver Microsome Stability (Multiple Species): Mouse - % Remaining after 30 min w/ NADPH (%) [10] [%] | IC50 [1, 19] [µM] | IC50 [2, 20] [µM] | IC50 [3, 21] [µM] | IC50 [4, 22] [µM] | EC50 [6, 23] [nM] | EC50 [9, 24] [nM] | 48 hr H929 Viability Celltiter-Glo: Mean EC50 (nM) ([6]; NCI-H929 cells, 48 hours, Celltiter-Glo) |
| --- | --- | --- | --- | --- | --- | --- | --- | --- | --- | --- | --- | --- | --- | --- | --- | --- | --- | --- | --- |
| CC(C)n1cnc(/C=C/c2csc(NC(=O)c3cc(Cl)cn3Cc3ccnc(F)c3)n2)c1Cl [Compound A1] | 0.03 | 1.86 | 2.02 | 66 | 1.89 | 62 | 11 | > 25000 | 82 | 31 | > 25000 | 71 | – | – | – | – | – | – | – |
| COc1cc(C(=O)Nc2nc(/C=C/c3ncn(C(C)C)c3Cl)cs2)n(Cc2ccnc(F)c2)c1 [Compound A2, (E)-N-(4-(2-(5-chloro-1-isopropyl-1H-imidazol-4-yl)vinyl)thiazol-2-yl)-1-((2-fluoropyridin-4-yl)methyl)-4-methoxy-1H-pyrrole-2-carboxamide] | 0.024 | 3.81 | 4.17 | 170 | 3.27 | 133 | 15 | > 25000 | 72 | 35 | > 25000 | 68 | – | – | – | – | – | – | – |
| O=C(Nc1nc(/C=C/c2cn(C(F)(F)F)cn2)cs1)c1cc(Cl)cn1Cc1ccnc(F)c1 [Compound A3, (E)-4-chloro-1-((2-fluoropyridin-4-yl)methyl)-N-(4-(2-(1-(trifluoromethyl)-1H-imidazol-4-yl)vinyl)thiazol-2-yl)-1H-pyrrole-2-carboxamide] | 1.76 | 15.2 | 12.2 | 7 | 4.68 | 3 | 6 | 4550 | 21 | 4 | > 20200 | 61 | – | – | – | – | – | – | – |
| CC(C(F)F)n1cnc(/C=C/c2csc(NC(=O)c3cc(Cl)cn3Cc3ccnc(F)c3)n2)c1 (stereo not drawn) [Compound A4, (E)-4-chloro-N-(4-(2-(1-(1,1-difluoropropan-2-yl)-1H-imidazol-4-yl)vinyl)thiazol-2-yl)-1-((2-fluoropyridin-4-yl)methyl)-1H-pyrrole-2-carboxamide] | – | – | – | 21 | – | 11 | 3 | – | 73 | 4 | – | 80 | 0.604 | 6.23 | 12.7 | 6.77 | > 23300 | > 25000 | – |
| O=C(Nc1nc(/C=C/c2cn(C(F)F)cn2)cs1)c1cc(Cl)cn1Cc1ccnc(F)c1 [Compound A5, (E)-4-chloro-N-(4-(2-(1-(difluoromethyl)-1H-imidazol-4-yl)vinyl)thiazol-2-yl)-1-((2-fluoropyridin-4-yl)methyl)-1H-pyrrole-2-carboxamide] | – | – | – | >57 | – | >57 | 4 | – | 42 | 2 | – | 73 | 0.436 | > 25 | > 25 | > 25 | 10100 | 16800 | – |
| COc1cc(C(=O)Nc2nc(/C=C/c3ncn(C(C)C)c3Cl)c(Cl)s2)n(Cc2ccnc(F)c2)c1 [Compound A6, (E)-N-(5-chloro-4-(2-(5-chloro-1-isopropyl-1H-imidazol-4-yl)vinyl)thiazol-2-yl)-1-((2-fluoropyridin-4-yl)methyl)-4-methoxy-1H-pyrrole-2-carboxamide] | – | – | – | 29 | – | 28 | 48 | – | 76 | 30 | – | 96 | 0.085 | 2.16 | 2.42 | 2.33 | – | > 25000 | I.A |
| O=C(Nc1nc(/C=C/C2CCC(F)(F)CC2)cs1)c1cccn1Cc1ccnc(F)c1 [Compound B29, (E)-N-(4-(2-(4,4-difluorocyclohexyl)vinyl)thiazol-2-yl)-1-((2-fluoropyridin-4-yl)methyl)-1H-pyrrole-2-carboxamide] | 0.112 | 0.838 | 1.43 | 12.0 | 0.922 | 8 | – | – | – | – | – | – | – | – | – | – | – | – | – |
